Reference: ChEMBL document CHEMBL3507680, “University of Dundee, Gates Library screen for HepG2 cell viability”

Test: Human HepG2 cell viability assay in 384 well format
Assay type: toxicity, cell-based
Design: dose 125 nL, time 70.5 hour; concentration not given beside the values
Conditions: HepG2 cells, read-out: Inhibition

Row | Compound | cytotoxicity at 70.5 h
1 | CCc1cc(C(=O)N2CCCC2c2nc(O)cc(CC)n2)on1 (stereo unspecified) | -1.1%
2 | Cc1nc(N2CCN(C(=O)c3ccsc3)CC2)c2cnn(C)c2n1 | -10.3%
3 | O=C(CNC(=O)N1CCc2c([nH]c3ccc(Cl)cc23)C1)N1CCOCC1 | 37.5%
4 | Cc1nnc(SCC(=O)NCc2ccc3c(c2)CCC(=O)N3)n1C | -3%
5 | CS(=O)(=O)N1C[C@H](C(=O)Nc2cnccn2)C[C@H]2OCC[C@H]21 | 24.9%
6 | CSCc1noc(CNC(=O)C2CCN(C(=O)C3CC3)CC2)n1 | -17.4%
7 | COCc1nnc(C(=O)N2CC(N3CCCCC3)C2)o1 | -9.01%
8 | CN(Cc1nc2ccccc2s1)C1CCCN(c2cccnn2)C1 (stereo unspecified) | -11%
9 | CNS(=O)(=O)CC(=O)NCc1cc2c(s1)CCCCC2 | -1.17%
10 | CC(C)[C@H](C)NC1CCN(c2ccc(-c3cscn3)cc2)CC1 | -14.3%
11 | Cc1cccnc1CN1CCN(c2noc(-c3ccccc3)n2)CC1 | 7.94%
12 | CCCC(C)NC1CCN(c2ccc(-n3ccnc3C)cc2)CC1 (stereo unspecified) | -2.41%
13 | CC(C)CN1CC(C(=O)N(C)CCc2cn[nH]c2)CC1=O (stereo unspecified) | -6.49%
14 | OC1CCN(CCCn2ccnc2-c2c[nH]cn2)CC1 | -5.95%
15 | CCOCc1ccccc1NC(=O)NC1CCN(CC(F)(F)F)C1 (stereo unspecified) | -6.42%
16 | O=C(C1CC=CC1)N1CCc2ncnc(-c3ccncc3)c2CC1 | 0.995%
17 | Cc1nc(N2CCC3(CCCN(CC4CC4)C3=O)C2)c2sccc2n1 (stereo unspecified) | 0.2%
18 | CCn1cnnc1CCNC(=O)C(C)(C)c1cccc(Cl)c1 | -7.37%
19 | CC(C)N1CC[C@@H]2[C@H](COCC3CC3)CN(C)C(=O)[C@@H]2CC1 | 4.19%

Row | Compound | cytotoxicity at 70.5 h
20 | Cc1nn(C)cc1CN1CCCC(n2c(=O)oc3ccc(Cl)cc32)C1 (stereo unspecified) | 46.8%
21 | Cc1ccc(-n2cccn2)cc1S(=O)(=O)N1C[C@H](C2CC2)[C@@H](N)C1 | 11.6%
22 | CC(C)Oc1cccc(C(O)CNC(=O)CCc2ccncc2)c1 (stereo unspecified) | -5.8%
23 | Cc1nsc(NC(=O)N2CCCC2C)n1 (stereo unspecified) | 2.78%
24 | Cc1ncsc1CCN(C)C(=O)CN1CC2(CCNCC2)OC1=O | 17.2%
25 | CC(C)(C)C(O)CN1CCN(C(=O)c2ccc3c(c2)COC3)CC1 (stereo unspecified) | 10.4%
26 | COCCN1CCC2(CC1)CC(NC(=O)CN(C)C)c1ccccc1O2 (stereo unspecified) | -6.88%
27 | Cc1ccc(N2CCCC(N(C)c3ncnc4c3CCC4)C2)nn1 (stereo unspecified) | 2.74%
28 | Cc1nc(Nc2nnc(C)s2)cc(C2CCCN2c2ccncn2)n1 (stereo unspecified) | -8.94%
29 | CC(Nc1ncnc2c1CCNC2)c1ccc(C(C)(C)C)cc1 (stereo unspecified) | 2.81%
30 | c1cncc(-c2c[nH]c([C@@H]3COCCN3Cc3ccncc3)n2)c1 | 1.27%
31 | Cn1nccc1C(=O)N1CCOC(Cc2ccc(F)cc2)C1 (stereo unspecified) | -3.53%
32 | Cc1nc(SC2CCN(c3sccc3C#N)C2=O)oc1C (stereo unspecified) | -1.94%
33 | CC(C)(C)c1cnc(CN2CCC(NC(=O)C3CCOCC3)CC2)o1 | -5%
34 | Cc1cc(CNC(=O)NC(C)c2ccncc2)no1 (stereo unspecified) | -9.9%
35 | O=C(N1CCCC1)N1CC[C@H]2[C@H]1CCN2c1ncccn1 | -3.91%
36 | O=C(CNC(=O)C1CC1)NCc1ccc(Cl)s1 | 1.44%
37 | Cc1nc(CNCc2cccc(OC34CCCN(CC3)C4)c2)n[nH]1 (stereo unspecified) | -3.22%
38 | Cc1nn(C)c(Cl)c1C1CCCN1C(=O)c1ccnc(N(C)C)c1 (stereo unspecified) | -2.23%

Row | Compound | cytotoxicity at 70.5 h
39 | CCO[C@@H]1CCN(C(=O)c2cscn2)[C@@H]1Cc1cnn(C)c1 | -10.2%
40 | Cc1cc(CNC(=O)[C@H]2CCCCN2C(=O)OC(C)(C)C)on1 | -1.11%
41 | O=C(N1CCCC1)N1CCN(c2ccc(Cl)nn2)C(=O)C1 | -7.98%
42 | O=C1CCC2(CCCN(C(=O)Cc3cccs3)C2)N1 (stereo unspecified) | -5%
43 | Cn1cc(C(=O)NCc2cncc3c2CCN(CC2CC2)C3)cn1 | 17.9%
44 | OC1(CNCc2csc(-c3ncccn3)n2)CCCNC1 (stereo unspecified) | -5.29%
45 | c1cc(-c2cc(C3CCN(Cc4cncnc4)C3)ccn2)ccn1 (stereo unspecified) | 0.319%
46 | Cc1ccc(C(=O)N2CC[C@@H](N(C)C)[C@@H]2Cc2cnn(C)c2)cn1 | -10.1%
47 | CCCc1cc(NCc2nc(COC)no2)n2nccc2n1 | -0.144%
48 | CC(C)NC(=O)N1CCCC(Cn2cc(-c3ccc(F)cc3)nn2)C1 (stereo unspecified) | 23.4%
49 | O=C(C1CCCCC1)N1CCCC([C@@H]2C[C@H](C(F)F)n3ncnc3N2)C1 (stereo partly specified) | -5.82%
50 | COCCNC(=O)N1CCN(C(=O)Cc2ccccc2F)CC1 | -8.11%
51 | O=C(C1CCN(Cc2nc(-c3ccco3)no2)CC1)N1CCCC1 | -4.18%
52 | Cc1ccc(-c2nc(CN(Cc3cccs3)C3CCS(=O)(=O)C3)cs2)o1 (stereo unspecified) | 13.7%
53 | CC(C)NC(=O)NCc1ccnc(N(C)C)n1 | -6.75%
54 | CCN(CC)CC[C@H]1CN(C(=O)c2ccc(F)cc2)CC[C@H]1CC(=O)O | -2.08%
55 | CC(C)(C)c1ncc2c(n1)CN(C(=O)c1ccc(-n3cnnn3)cc1)C2 | -3.62%
56 | CC(c1ccccn1)N(C)C(=O)CN1CCN(c2ccccn2)CC1 (stereo unspecified) | -11.5%
